From PubChem BioAssay AID1259407 (Chemical Carcinogenesis Research Information System (CCRIS), 2018)
Active and inactive are the calls of the source. How the calls were made is not given here.

Test system: CCRIS mutagenicity, Ames/micronucleus/aberration tests
Assay: CCRIS mutagenicity studies
[1] = Test System: AMES SALMONELLA TYPHIMURIUM, Strain/Indicator: TA98, Metabolic Activation: NONE, Method: PREINCUBATION
[2] = Test System: AMES SALMONELLA TYPHIMURIUM, Strain/Indicator: TA98, Metabolic Activation: NONE, Method: STANDARD PLATE
[3] = Test System: AMES SALMONELLA TYPHIMURIUM, Strain/Indicator: TA98, Metabolic Activation: RAT, LIVER, S-9, AROCLOR 1254, Method: STANDARD PLATE
[4] = Test System: AMES SALMONELLA TYPHIMURIUM, Strain/Indicator: TA100, Metabolic Activation: NONE, Method: STANDARD PLATE
[5] = Test System: AMES SALMONELLA TYPHIMURIUM, Strain/Indicator: TA100, Metabolic Activation: RAT, LIVER, S-9, AROCLOR 1254, Method: STANDARD PLATE
[6] = Test System: AMES SALMONELLA TYPHIMURIUM, Strain/Indicator: TA1535, Metabolic Activation: NONE, Method: STANDARD PLATE
[7] = Test System: AMES SALMONELLA TYPHIMURIUM, Strain/Indicator: TA1537, Metabolic Activation: NONE, Method: STANDARD PLATE

Measured: mutagenic call

O=C(O)[C@H](O)[C@@H](O)C(=O)O
inactive: End Point: IN VIVO MICRONUCLEUS, Test System: BONE MARROW POLYCHROMATIC ERYTHROCYTES, Species: MOUSE, Strain/Sex: DDY/MALE, Route: IP inactive; negative; authors report chemical name as sodium d-tartrate with cas number of s | Test System: AMES SALMONELLA TYPHIMURIUM, Strain/Indicator: TA97, Metabolic Activation: NONE, Method: PREINCUBATION inactive; negative | Test System: AMES SALMONELLA TYPHIMURIUM, Strain/Indicator: TA97, Metabolic Activation: RAT, LIVER, S-9, AROCLOR 1254, Method: PREINCUBATION inactive; negative | [1] inactive; negative | [2] inactive; negative | Test System: AMES SALMONELLA TYPHIMURIUM, Strain/Indicator: TA98, Metabolic Activation: RAT LIVER S-9, PHENOBARBITAL AND BETA-NAPHTHOFLAVONE, Method: PREINCUBATION inactive; negative | [3] inactive; negative | Test System: AMES SALMONELLA TYPHIMURIUM, Strain/Indicator: TA100, Metabolic Activation: NONE, Method: PREINCUBATION inactive; negative | [4] inactive; negative | Test System: AMES SALMONELLA TYPHIMURIUM, Strain/Indicator: TA100, Metabolic Activation: RAT LIVER S-9, PHENOBARBITAL AND BETA-NAPHTHOFLAVONE, Method: PREINCUBATION inactive; negative | [5] inactive; negative | Test System: AMES SALMONELLA TYPHIMURIUM, Strain/Indicator: TA102, Metabolic Activation: NONE, Method: PREINCUBATION inactive; negative | Test System: AMES SALMONELLA TYPHIMURIUM, Strain/Indicator: TA102, Metabolic Activation: RAT, LIVER, S-9, AROCLOR 1254, Method: PREINCUBATION inactive; negative | Test System: AMES SALMONELLA TYPHIMURIUM, Strain/Indicator: TA1535, Metabolic Activation: NONE, Method: PREINCUBATION inactive; negative | [6] inactive; negative | Test System: AMES SALMONELLA TYPHIMURIUM, Strain/Indicator: TA1535, Metabolic Activation: RAT LIVER S-9, PHENOBARBITAL AND BETA-NAPHTHOFLAVONE, Method: PREINCUBATION inactive; negative | Test System: AMES SALMONELLA TYPHIMURIUM, Strain/Indicator: TA1535, Metabolic Activation: RAT, LIVER, S-9, AROCLOR 1254, Method: STANDARD PLATE inactive; negative | Test System: AMES SALMONELLA TYPHIMURIUM, Strain/Indicator: TA1537, Metabolic Activation: NONE, Method: PREINCUBATION inactive; negative | [7] inactive; negative | Test System: AMES SALMONELLA TYPHIMURIUM, Strain/Indicator: TA1537, Metabolic Activation: RAT LIVER S-9, PHENOBARBITAL AND BETA-NAPHTHOFLAVONE, Method: PREINCUBATION inactive; negative | Test System: AMES SALMONELLA TYPHIMURIUM, Strain/Indicator: TA1537, Metabolic Activation: RAT, LIVER, S-9, AROCLOR 1254, Method: STANDARD PLATE inactive; negative | Test System: AMES SALMONELLA TYPHIMURIUM, Strain/Indicator: TA1538, Metabolic Activation: NONE, Method: STANDARD PLATE inactive; negative | Test System: AMES SALMONELLA TYPHIMURIUM, Strain/Indicator: TA1538, Metabolic Activation: RAT, LIVER, S-9, AROCLOR 1254, Method: STANDARD PLATE inactive; negative | Test System: E. COLI, Strain/Indicator: WP2, Metabolic Activation: NONE, Method: STANDARD PLATE inactive; negative | Test System: E. COLI, Strain/Indicator: WP2, Metabolic Activation: RAT, LIVER, S-9, AROCLOR 1254, Method: STANDARD PLATE inactive; negative | Test System: E.COLI, Strain/Indicator: WP2UVRA/PKM101, Metabolic Activation: NONE, Method: PREINCUBATION inactive; negative | Test System: E.COLI, Strain/Indicator: WP2UVRA/PKM101, Metabolic Activation: RAT LIVER S-9, PHENOBARBITAL AND BETA-NAPHTHOFLAVONE, Method: PREINCUBATION inactive; negative

Cc1ccc2cc3c4c(ccc3c3c2c1C[C@H]3O)[C@H](O)[C@@H](O)C=C4
active: Test System: CHINESE HAMSTER V-79, Strain/Indicator: V-79/8-AZAGUANINE, Metabolic Activation: RAT, LIVER, S-9, AROCLOR, Method: STANDARD PLATE active; positive

Cc1c(C)c([N+](=O)[O-])c(C(C)(C)C)c([N+](=O)[O-])c1C
inactive: Test System: AMES SALMONELLA TYPHIMURIUM, Strain/Indicator: TA98, Metabolic Activation: RAT, LIVER, S-9, AROCLOR 1254, Method: PREINCUBATION inactive; negative | [3] inactive; negative | Test System: AMES SALMONELLA TYPHIMURIUM, Strain/Indicator: TA100, Metabolic Activation: RAT, LIVER, S-9, AROCLOR 1254, Method: PREINCUBATION inactive; negative | [5] inactive; negative

CCOC(=O)Nc1ccc(SC[C@@H]2CO[C@@](Cn3ccnc3)(c3ccc(Cl)cc3Cl)O2)cc1
active: End Point: IN VIVO MICRONUCLEUS, Test System: BLOOD ERYTHROCYTES, Species: MOUSE, Strain/Sex: CD-1/MALE, Route: ORAL active; positive (at 48 and 72 hr at higher dose)

Nc1ccc2nc3c(N)cccc3nc2c1
inactive: [1] inactive; negative
active: Test System: AMES SALMONELLA TYPHIMURIUM, Strain/Indicator: TA98, Metabolic Activation: RAT, LIVER, S-9, PCB, Method: PREINCUBATION active; positive

Cc1cccc(Nc2ccncc2S(=O)(=O)NC(=O)NC(C)C)c1
inactive: [2] inactive; negative | Test System: AMES SALMONELLA TYPHIMURIUM, Strain/Indicator: TA98, Metabolic Activation: RAT, LIVER, S-9, Method: STANDARD PLATE inactive; negative | [4] inactive; negative | Test System: AMES SALMONELLA TYPHIMURIUM, Strain/Indicator: TA100, Metabolic Activation: RAT, LIVER, S-9, Method: STANDARD PLATE inactive; negative | [6] inactive; negative | Test System: AMES SALMONELLA TYPHIMURIUM, Strain/Indicator: TA1535, Metabolic Activation: RAT, LIVER, S-9, Method: STANDARD PLATE inactive; negative | [7] inactive; negative | Test System: AMES SALMONELLA TYPHIMURIUM, Strain/Indicator: TA1537, Metabolic Activation: RAT, LIVER, S-9, Method: STANDARD PLATE inactive; negative | Test System: E. COLI, Strain/Indicator: WP2 UVRA, Metabolic Activation: NONE, Method: STANDARD PLATE inactive; negative | Test System: E. COLI, Strain/Indicator: WP2 UVRA, Metabolic Activation: RAT, LIVER, S-9, Method: STANDARD PLATE inactive; negative

CCCOc1ccccc1C(=O)NOC(C)=O
active: [4] active; positive | Test System: AMES SALMONELLA TYPHIMURIUM, Strain/Indicator: TA100, Metabolic Activation: RAT, S-9, AROCLOR, Method: STANDARD PLATE active; positive
